Laboratory results taken from publication PMC8776995 (Frontiers in Chemistry, 2022).
Where “and” joins values, the source holds several entries; their conditions need not be identical. Equal entries are not always repeated.

Columns and labels:
wild-type EGFR = wild-type EGFR (Homo sapiens, UniProt P00533); experiment: EGFR kinase assay (ELISA)
H460 cells = experiment: CCK-8 antiproliferation assay, H460; settings: for Inhibitory efficacy: single repeats (Repeat 1-3), given as fraction
A549 cells = experiment: CCK-8 antiproliferation assay, A549; settings: for Inhibitory efficacy: A549 cells
PC-9 cells = experiment: CCK-8 antiproliferation assay, PC-9; settings: for Inhibitory efficacy: single repeats (Repeat 1-3), given as fraction
Description: The compounds were dissolved in DMSO to make a 20 μM stock solution and diluted to the concentration of working solutions with complete growth medium before administration.
Cells were seeded in 96-well plates: 3,000–5,000 cells/well in 100 ul. One day after seeding, the test compounds at concentration between 1.0 and 16.0 μ M or 0.1% DMSO (as control) were added to cells in triplicate. 48 h later, CCK-8 was added and incubated the plate for 1–4 h in the incubator. The absorbance at 450 nm were measured using a microplate reader (Bio-Tek).

H1975 cells = experiment: CCK-8 antiproliferation assay, H1975; settings: for Inhibitory efficacy: H1975 cells
[1] = 8uM, given as fraction, Repeat 1-3
[2] = 16uM, given as fraction, Repeat 1-3

wild-type EGFR, sequence (P00533 25-1210): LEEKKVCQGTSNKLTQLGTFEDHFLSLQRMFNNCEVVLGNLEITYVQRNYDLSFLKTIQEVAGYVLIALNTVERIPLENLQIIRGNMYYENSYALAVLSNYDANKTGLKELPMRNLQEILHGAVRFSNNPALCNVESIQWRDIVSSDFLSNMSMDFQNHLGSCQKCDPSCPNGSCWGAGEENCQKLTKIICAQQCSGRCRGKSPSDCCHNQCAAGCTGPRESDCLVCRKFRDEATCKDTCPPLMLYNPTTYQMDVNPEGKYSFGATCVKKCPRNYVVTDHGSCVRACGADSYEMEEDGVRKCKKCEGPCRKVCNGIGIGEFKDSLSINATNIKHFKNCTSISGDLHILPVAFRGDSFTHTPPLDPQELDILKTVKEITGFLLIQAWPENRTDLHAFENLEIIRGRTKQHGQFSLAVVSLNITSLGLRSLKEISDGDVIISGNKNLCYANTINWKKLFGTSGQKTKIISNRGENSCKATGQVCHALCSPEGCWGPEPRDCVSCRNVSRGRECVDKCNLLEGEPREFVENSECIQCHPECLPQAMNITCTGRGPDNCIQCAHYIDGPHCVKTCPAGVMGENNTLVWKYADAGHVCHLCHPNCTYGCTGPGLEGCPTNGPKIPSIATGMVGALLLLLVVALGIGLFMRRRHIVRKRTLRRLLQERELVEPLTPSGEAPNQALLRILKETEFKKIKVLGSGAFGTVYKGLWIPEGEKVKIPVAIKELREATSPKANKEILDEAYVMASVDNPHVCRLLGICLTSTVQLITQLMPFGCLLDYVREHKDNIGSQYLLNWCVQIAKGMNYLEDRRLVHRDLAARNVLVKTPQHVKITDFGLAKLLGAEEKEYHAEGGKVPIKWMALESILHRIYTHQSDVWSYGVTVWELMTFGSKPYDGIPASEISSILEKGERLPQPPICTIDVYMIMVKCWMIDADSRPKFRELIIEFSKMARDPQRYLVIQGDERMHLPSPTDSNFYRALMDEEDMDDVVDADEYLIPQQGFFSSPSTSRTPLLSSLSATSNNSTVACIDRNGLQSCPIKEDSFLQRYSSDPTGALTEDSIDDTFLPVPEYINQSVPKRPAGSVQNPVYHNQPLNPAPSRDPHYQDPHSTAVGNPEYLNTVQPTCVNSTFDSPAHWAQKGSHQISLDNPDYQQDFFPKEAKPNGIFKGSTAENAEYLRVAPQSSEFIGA

SMILES: COCCOc1cc2ncnc(Nc3cccc(-c4cn(-c5ccccc5Cl)nn4)c3)c2cc1OCCOC [e8, [6,7-Bis-(2-methoxy-ethoxy)-quinazolin-4-yl]-{3-[1-(2-chloro-phenyl)-1H-[1,2,3]triazol-4-yl]-phenyl}-amine]
- melting point: 131 to 134 °C
- inhibition at 0.0003 µM (wild-type EGFR; 0.3 nM, duplicate wells, calculated from A450): 14.4%
- Inhibition (wild-type EGFR; 0.3 nM, duplicate wells, calculated from A450, 0.0003 µM): 7.895
- inhibition at 0.003 µM (wild-type EGFR; 3 nM, duplicate wells, calculated from A450): 15.7%
- Inhibition (wild-type EGFR; 3 nM, duplicate wells, calculated from A450, 0.003 µM): 18.5965
- inhibition at 0.03 µM (wild-type EGFR; 30 nM, duplicate wells, calculated from A450): 17.9%
- Inhibition (wild-type EGFR; 30 nM, duplicate wells, calculated from A450, 0.03 µM): 21.4035
- inhibition at 0.3 µM (wild-type EGFR; 300 nM, duplicate wells, calculated from A450): 28.8%
- Inhibition (wild-type EGFR; 300 nM, duplicate wells, calculated from A450, 0.3 µM): 23.1579
- inhibition at 3 µM (wild-type EGFR; 3000 nM, duplicate wells, calculated from A450): 43%
- Inhibition (wild-type EGFR; 3000 nM, duplicate wells, calculated from A450, 3 µM): 40.5263
- inhibition at 30 µM (wild-type EGFR; 30000 nM, duplicate wells, calculated from A450): 91%
- Inhibition (wild-type EGFR; 30000 nM, duplicate wells, calculated from A450, 30 µM): 89.8246
- IC50 (wild-type EGFR; IC50 (μM) EGFR, ELISA, 3 μmol/L ATP): 1.99 µM
- Inhibitory efficacy (H460 cells; H460, 1uM, 1 µM): 0.1177 and 0.197
- Inhibitory efficacy (H460 cells; H460, 2uM, 2 µM): 0.3433 and 0.3114
- Inhibitory efficacy (H460 cells; H460, 4uM, 4 µM): 0.6025 and 0.5869
- Inhibitory efficacy (H460 cells; H460, 8uM, 8 µM): 0.6548 and 0.6973
- Inhibitory efficacy (H460 cells; H460, 16uM, 16 µM): 0.6875 and 0.7414
- IC50 (H460 cells; Homo sapiens, NCI-H460, 48 h, read-out: IC50 (μM) H460, CCK-8, 48 h, average ± SD of three independent experiments): 4.18 ± 0.49 µM
- inhibition at 1 µM (H460 cells; Homo sapiens, NCI-H460, read-out: Inhibitory efficacy, H460, 1uM, single repeats (Repeat 1-3), given as fraction): 14.2%
- inhibition at 2 µM (H460 cells; Homo sapiens, NCI-H460, read-out: Inhibitory efficacy, H460, 2uM, single repeats (Repeat 1-3), given as fraction): 35.8%
- inhibition at 4 µM (H460 cells; Homo sapiens, NCI-H460, read-out: Inhibitory efficacy, H460, 4uM, single repeats (Repeat 1-3), given as fraction): 48.3%
- inhibition at 8 µM (H460 cells; Homo sapiens, NCI-H460, read-out: Inhibitory efficacy, H460, 8uM, single repeats (Repeat 1-3), given as fraction): 66.5%
- inhibition at 16 µM (H460 cells; Homo sapiens, NCI-H460, read-out: Inhibitory efficacy, H460, 16uM, single repeats (Repeat 1-3), given as fraction): 66.8%
- Inhibitory efficacy (A549 cells; [1]): 0.2217 and 0.2238
- Inhibitory efficacy (A549 cells; [2]): 0.3678 and 0.3836
- IC50 (A549 cells; Homo sapiens, A549, 48 h, read-out: IC50 (μM) A549, CCK-8, 48 h, average ± SD of three independent experiments): 23 ± 0.75 µM
- inhibition at 8 µM (A549 cells; Homo sapiens, A549, read-out: Inhibitory efficacy, A549 cells, 8uM, given as fraction, Repeat 1-3): 18.4%
- inhibition at 16 µM (A549 cells; Homo sapiens, A549, read-out: Inhibitory efficacy, A549 cells, 16uM, given as fraction, Repeat 1-3): 42.9%
- IC50 (PC-9 cells; Homo sapiens, PC-9, 48 h, read-out: IC50 (μM) PC-9): > 100 µM
- inhibition at 4 µM (PC-9 cells; Homo sapiens, PC-9, read-out: Inhibitory efficacy, PC-9, 4uM, single repeats (Repeat 1-3), given as fraction): 17.4%
- inhibition at 8 µM (PC-9 cells; Homo sapiens, PC-9, read-out: Inhibitory efficacy, PC-9, 8uM, single repeats (Repeat 1-3), given as fraction): 26.3%
- inhibition at 16 µM (PC-9 cells; Homo sapiens, PC-9, read-out: Inhibitory efficacy, PC-9, 16uM, single repeats (Repeat 1-3), given as fraction): 13.4%
- Inhibitory efficacy (PC-9 cells; PC-9, 4uM, 4 µM): 0.2895 and 0.3075
- Inhibitory efficacy (PC-9 cells; PC-9, 8uM, 8 µM): 0.1686 and 0.3213
- Inhibitory efficacy (PC-9 cells; PC-9, 16uM, 16 µM): 0.1771 and 0.2089
- Inhibitory efficacy (H1975 cells; 1uM, given as fraction, Repeat 1-3): 0.1767 and 0.1612
- Inhibitory efficacy (H1975 cells; 2uM, given as fraction, Repeat 1-3): 0.1999 and 0.1391
- Inhibitory efficacy (H1975 cells; 4uM, given as fraction, Repeat 1-3): 0.3925 and 0.388
- Inhibitory efficacy (H1975 cells; [1]): 0.5795 and 0.574
- Inhibitory efficacy (H1975 cells; [2]): 0.6879 and 0.6171
- IC50 (H1975 cells; Homo sapiens, NCI-H1975, 48 h, read-out: IC50 (μM) H1975, CCK-8, 48 h, average ± SD of three independent experiments): 7.19 ± 0.68 µM
- inhibition at 1 µM (H1975 cells; Homo sapiens, NCI-H1975, read-out: Inhibitory efficacy, H1975 cells, 1uM, given as fraction, Repeat 1-3): 16.1%
- inhibition at 2 µM (H1975 cells; Homo sapiens, NCI-H1975, read-out: Inhibitory efficacy, H1975 cells, 2uM, given as fraction, Repeat 1-3): 19.8%
- inhibition at 4 µM (H1975 cells; Homo sapiens, NCI-H1975, read-out: Inhibitory efficacy, H1975 cells, 4uM, given as fraction, Repeat 1-3): 39.9%
- inhibition at 8 µM (H1975 cells; Homo sapiens, NCI-H1975, read-out: Inhibitory efficacy, H1975 cells, 8uM, given as fraction, Repeat 1-3): 51.1%
- inhibition at 16 µM (H1975 cells; Homo sapiens, NCI-H1975, read-out: Inhibitory efficacy, H1975 cells, 16uM, given as fraction, Repeat 1-3): 64.1%
